Laboratory results: patent US8759356B2, “Compounds and methods for controlling fungi” (Dow AgroSciences, LLC., priority 2009, dated 2014)

Key:
[1] = system: Septoria tritici (SEPTTR); assay: One day protectant test against Septoria blotch of wheat; format: in vivo; conditions: wheat 'Yuma' seedlings, inoculated the day after treatment
Method: (§1) It will be understood by those in the art that the efficacy of the compounds against the foregoing fungi establishes the general utility of the compounds as fungicides. The activity of the compounds as effective fungicides was determined by applying the compounds to plants and observing control of fungal disease. The compounds were formulated at rates of 50 ppm and 200 ppm in 10 vol. % acetone plus 90 vol. % Triton X water (deionized water 99.99 wt %+0.01 wt % Triton X100), giving a “formulated test compound.” Formulated test compounds were applied to plants using a turntable sprayer fitted with two opposing air atomization nozzles which delivered approximately 1500 L/ha of spray volume.
(§2) Again referring to Table 1, tests were carried out to determine a given exemplary compound's ability to prevent or at least limit a fungal infection as follows. All plants in the study were inoculated with spores of the fungus in this case either PUCCRT or SEPTTR) the day after treatment with the putative fungicide. Next, the plants were incubated in an environment conducive to disease development. Disease severity was evaluated 7 to 25 days later, depending on the speed of disease development. The following experiments were performed in the laboratory to determine the fungicidal efficacy of the compounds of the invention.
Measuring the Preventative Effect of Various Compounds Against Septoria Blotch of Wheat (Causal Agent Bayer Code SEPTTR).
(§3) Each pot contained 3-10 seedlings. These plants were sprayed until wet with the formulated test compound. On the following day, the leaves were inoculated with an aqueous spore suspension of Septoria tritici and the plants were kept in high humidity (one day in a dark dew chamber followed by three days in a lighted dew chamber) to permit the spores to germinate and to infect the leaf. The plants were then transferred to a greenhouse until disease developed on untreated control plants. These tests were carried out using two different levels of the compound, 50 ppm and 200 ppm, see Table 1.
(§4) Disease control was determined by visually estimating the percent disease severity in treated and untreated pots 7 to 24 days after inoculation, depending on speed of disease development. Evaluations were typically made 7 or 8 days after inoculation for PUCCRT and 18 to 22 days after inoculation for SEPTTR. Percent disease control (% DC) was calculated by: % DC=(1−% Disease severity treated/% disease severity untreated)*100.

[2] = system: Septoria tritici (SEPTTR); assay: Three day curative test against Septoria blotch of wheat; format: in vivo; conditions: wheat 'Yuma' seedlings, treated three days after inoculation
Method: as §1
Measuring the Curative Effect of Various Compounds Against Septoria Blotch of Wheat (Causal Agent Bayer Code SEPTTR).
as §3, with “plants” for “plants were sprayed until wet with the formulated test compound. On the following day, the leaves”, “two” for “three”, “then removed form the dew chamber and allowed to dry. After drying, the inoculated plants were sprayed until wet with the formulated test compound. On the following day, the plants were” for “then”
as §4

[3] = system: Puccinia recondita tritici (PUCCRT); assay: One day protectant test against leaf rust of wheat; format: in vivo; conditions: wheat 'Yuma' seedlings, inoculated the day after treatment
Method: as §1, §2
Measuring the Protective Effect of Various Compounds Against Leaf Rust of Wheat (Causal Agent Bayer Code PUCCRT).
as §3, with “3-8” for “3-10”, “compounds.” for “compound.”, “Puccinia recondita” for “Septoria”, “overnight” for “(one day in a dark dew chamber followed by three days in a lighted dew chamber)”
as §4

## Clc1ccc(-c2nc(NC3CC3)ncc2Cl)cc1 [compound 7]
[1]; 50 ppm spray
  Percent Disease Control, One Day Protectant, SEPTTR: 91%
[1]; 200 ppm spray
  Percent Disease Control, One Day Protectant, SEPTTR: 61%
[2]; 50 ppm spray
  Percent Disease Control, Three Day Curative, SEPTTR: 50%
[2]; 200 ppm spray
  Percent Disease Control, Three Day Curative, SEPTTR: 50%
[3]; 50 ppm spray
  Percent Disease Control, One Day Protectant, PUCCRT: 53%
[3]; 200 ppm spray
  Percent Disease Control, One Day Protectant, PUCCRT: 0%

## Cc1ccc(-c2ncc(Cl)c(NC3CC3)n2)cc1 [compound 6]
[1]; 50 ppm spray
  Percent Disease Control, One Day Protectant, SEPTTR: 65%
[1]; 200 ppm spray
  Percent Disease Control, One Day Protectant, SEPTTR: 95%
[2]; 50 ppm spray
  Percent Disease Control, Three Day Curative, SEPTTR: 0%
[2]; 200 ppm spray
  Percent Disease Control, Three Day Curative, SEPTTR: 27%
[3]; 50 ppm spray
  Percent Disease Control, One Day Protectant, PUCCRT: 97%
[3]; 200 ppm spray
  Percent Disease Control, One Day Protectant, PUCCRT: 99%

## Clc1ccc(-c2ncc(Cl)c(NC3CC3)n2)cc1Cl [compound 2]
[1]; 50 ppm spray
  Percent Disease Control, One Day Protectant, SEPTTR: 0%
[1]; 200 ppm spray
  Percent Disease Control, One Day Protectant, SEPTTR: 35%
[2]; 50 ppm spray
  Percent Disease Control, Three Day Curative, SEPTTR: 62%
[2]; 200 ppm spray
  Percent Disease Control, Three Day Curative, SEPTTR: 72%
[3]; 50 ppm spray
  Percent Disease Control, One Day Protectant, PUCCRT: 0%
[3]; 200 ppm spray
  Percent Disease Control, One Day Protectant, PUCCRT: 0%

## Clc1cnc(-c2ccccc2)nc1NC1CC1 [compound 5]
[1]; 50 ppm spray
  Percent Disease Control, One Day Protectant, SEPTTR: 38%
[1]; 200 ppm spray
  Percent Disease Control, One Day Protectant, SEPTTR: 90%
[2]; 50 ppm spray
  Percent Disease Control, Three Day Curative, SEPTTR: 0%
[2]; 200 ppm spray
  Percent Disease Control, Three Day Curative, SEPTTR: 0%
[3]; 50 ppm spray
  Percent Disease Control, One Day Protectant, PUCCRT: 99%
[3]; 200 ppm spray
  Percent Disease Control, One Day Protectant, PUCCRT: 99%

## Fc1cc(Cl)ccc1-c1ncc(Cl)c(NC2CC2)n1 [compound 4]
[1]; 50 ppm spray
  Percent Disease Control, One Day Protectant, SEPTTR: 38%
[1]; 200 ppm spray
  Percent Disease Control, One Day Protectant, SEPTTR: 86%
[2]; 50 ppm spray
  Percent Disease Control, Three Day Curative, SEPTTR: 0%
[2]; 200 ppm spray
  Percent Disease Control, Three Day Curative, SEPTTR: 18%
[3]; 50 ppm spray
  Percent Disease Control, One Day Protectant, PUCCRT: 50%
[3]; 200 ppm spray
  Percent Disease Control, One Day Protectant, PUCCRT: 99%

## Clc1ccc(-c2ncc(Cl)c(NC3CC3)n2)cc1 [Example 1]
other
  melting point: 103 to 105 °C
[1]; 50 ppm spray
  Percent Disease Control, One Day Protectant, SEPTTR: 90%
[1]; 200 ppm spray
  Percent Disease Control, One Day Protectant, SEPTTR: 97%
[2]; 50 ppm spray
  Percent Disease Control, Three Day Curative, SEPTTR: 0%
[2]; 200 ppm spray
  Percent Disease Control, Three Day Curative, SEPTTR: 0%
[3]; 50 ppm spray
  Percent Disease Control, One Day Protectant, PUCCRT: 93%
[3]; 200 ppm spray
  Percent Disease Control, One Day Protectant, PUCCRT: 97%
